{"source": "patent US20110112299A1", "about": "“TETRACYCLIC COMPOUND” (KYOWA HAKKO KIRIN CO., LTD., priority 2008, published 2011)", "biological_target": "T1, recombinant human glucocorticoid receptor (Homo sapiens, UniProt P04150)", "T1 construct": "purchased Panvera/Invitrogen P2812 (kit P2893)", "T1 sequence (P04150 1-777)": "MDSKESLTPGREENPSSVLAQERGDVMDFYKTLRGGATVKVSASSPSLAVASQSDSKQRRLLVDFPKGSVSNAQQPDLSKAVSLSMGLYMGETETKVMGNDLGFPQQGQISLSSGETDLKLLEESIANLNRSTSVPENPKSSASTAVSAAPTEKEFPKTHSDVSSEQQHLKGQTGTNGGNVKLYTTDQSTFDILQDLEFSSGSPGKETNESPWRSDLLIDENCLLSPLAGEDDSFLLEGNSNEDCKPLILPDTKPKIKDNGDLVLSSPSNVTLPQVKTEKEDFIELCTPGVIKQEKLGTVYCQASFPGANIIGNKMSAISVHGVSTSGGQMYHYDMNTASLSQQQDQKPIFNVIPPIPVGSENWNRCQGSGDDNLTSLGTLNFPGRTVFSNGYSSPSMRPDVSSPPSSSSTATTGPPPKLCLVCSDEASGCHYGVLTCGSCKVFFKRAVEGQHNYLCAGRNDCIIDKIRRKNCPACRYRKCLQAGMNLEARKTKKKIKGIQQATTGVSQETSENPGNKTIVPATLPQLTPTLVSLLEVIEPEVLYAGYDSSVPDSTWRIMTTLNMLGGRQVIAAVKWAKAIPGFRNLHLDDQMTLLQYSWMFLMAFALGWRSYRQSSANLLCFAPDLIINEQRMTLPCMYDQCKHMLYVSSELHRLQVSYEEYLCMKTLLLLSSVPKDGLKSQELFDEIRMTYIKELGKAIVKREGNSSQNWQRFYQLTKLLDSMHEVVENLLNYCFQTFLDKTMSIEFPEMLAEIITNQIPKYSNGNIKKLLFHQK", "assay": "Human glucocorticoid receptor assay (fluorescence polarization, Test Example 1)", "type": "binding", "procedure": "In this assay, a fluorescence polarization assay kit (Panvera/Invitrogen, product number: P2893) was used. The recombinant human glucocorticoid receptor (product number: P2812), the Fluoromore (trademark)-labeled dexamethasone (GS Green, product number: P2813), the stabilizing peptide solution (product number: P2815), and the basic buffer solution (product number: P2814) which were used in the assay kit had been stored at −80° C. until used. A buffer solution for the assay was prepared by adding the basic buffer solution (10 fold dilution), the stabilizing peptide solution (10 fold dilution), and 1 mol/L DTT (1000 fold dilution to give a final concentration of 1 mmol/L).\nThe assay was performed as follows. […] The fluorescence polarization value of each well was measured using a plate reader (PerkinElmer, Fusion or Envision). […] To a positive control group, dexamethasone was added so as to give a final concentration of 1 μmol/L. The glucocorticoid receptor binding rate (%) was calculated by the following formula.\nGlucocorticoid receptor binding rate (%)=100×[1-(fluorescence polarization value of test compound solution−fluorescence polarization value of positive control solution)/(fluorescence polarization value of negative control solution−fluorescence polarization value of positive control solution)]", "data": [{"smiles": "CC/C(=C1\\c2cc3cnn(C)c3cc2COc2ccccc21)c1cccc(NS(C)(=O)=O)c1", "note": "[Compound 2, (Z)-5-{1-[3-(methanesulfonamide)phenyl]propylidene}-1-methyl-5,11-dihydrobenzo[6,7]oxepino[4,3-f]indazole]", "values": [{"measurement": "inhibitory activity (glucocorticoid receptor binding rate)", "setting": "at a concentration of 100 nmol/L or higher", "result": "≥ 80", "unit": "%"}, {"measurement": "selectivity for human glucocorticoid receptor over progesterone receptor", "setting": "from the results of Test Examples 1 and 2", "result": "selective inhibitory activity to human glucocorticoid receptors"}]}]}
